Data on three molecules can be found in patent US10993912B2, “Carrier-antibody compositions and methods of making and using the same” (MAYO FOUNDATION FOR MEDICAL EDUCATION AND RESEARCH, priority 2014, dated 2021).

The target in experiment [1] is T1, ABX (Homo sapiens, UniProt P02768).
T1 construct: purchased Celgene Corporation, Summit, N.J
The experiment can be described thus: Binding of cisplatin to ABX, free cisplatin by HPLC. Particulars: ABX 5 mg/ml, cisplatin 0.5 mg/ml, room temperature 30 minutes.

The target in experiment [2] is T1, ABX. The experiment can be described thus: Bio-Layer Interferometry (BLItz) binding assay of antibody and ABX. Particulars: for dependence of binding affinity to ABX on pH / temperature: pH 3, 5, 7, 9, for BEV also RT, 37° C. and 58° C.
Procedure: The association and dissociation constants were calculated using the BLItz software.
Experiment [3] concerns A375 human melanoma cells. Description: A375 xenograft efficacy in athymic nude mice. It counts as in vivo. The following applies: Example 5; ABX 30 mg/kg, BEV 12 mg/kg, tumors about 700 mm^3 at treatment.
Procedure: Tumor response was determined at day 7 post-treatment by the percent change in tumor size from the day of treatment.
In vivo experiments were performed at least 2 times. The number of mice required for those experiments was determined by power analysis. Mouse tumors were measured 2-3 times/week and mice were sacrificed when the tumor was 10% by weight. […] The end point of the mouse studies was median survival. Kaplan-Meier curves were generated and Mantle-Cox test was performed to determine significance of median survival between treatment groups. The in vitro results presented are representative of at least 5 repeated experiments. Statistical analyses of in vitro and in vivo percent change from baseline experiments were done using the Student's t-test.
(§1) To test tumor efficacy, 1×10^6 A375 human melanoma cells were implanted into the right flank of athymic nude mice (Harlan Sprague Dawley, Indianapolis, Ind.). […] Tumor size was monitored 3 times/week and tumor volume was calculated with the following equation: (length*width^2)/2. Mice were sacrificed when the tumor size equaled 10% of the mouse body weight or about 2500 mm^3. The day 7 percent change from baseline was calculated as follows: [(tumor size on treatment day-tumor size on day 7)/tumor size on treatment day]*100.
Experiment [4] has as its system A375 human melanoma cells. Description: A375 xenograft, pretreatment with BEV before AB160. It counts as in vivo, athymic nude mice. Particulars: 12 mg/kg dose. From the text:
Data is represented at day 7-post and 10-day treatment as tumor volume in mm^3.
Data is represented at day 7-post and day 10-post treatment as tumor volume in mm^3. F 11A-E track tumor size over 10 days. […] See also FIG. 11F and FIG. 11G.

For experiment [5], the system named is Daudi human lymphoma cells. Description: Daudi xenograft efficacy in athymic nude mice. The format is in vivo. Particulars: ABX 30 mg/kg, rituximab 12 mg/kg.
Procedure: Tumor response was determined at day 7 post-treatment by the percent change in tumor size from the first day of treatment.
as §1

As for `N.N.[Cl][Pt][Cl]` [cisplatin], on ABX [1], the “cisplatin remaining in the supernatant” value is recorded as 40%.

With bevacizumab, in the experiment with ABX [2], the “binding affinity to ABX (in words)” value is “picomolar range”; the “dependence of binding affinity to ABX on pH / temperature” value was “highest binding affinity observed when the particles are formed at pH 5 and 58 °C”. In addition, the median survival in experiment [3] is 14 days. In experiment [4], the “therapeutic effect of BEV alone” value is “not therapeutic”.

Turning to rituximab, in the experiment with ABX [2], the “binding affinity to ABX (in words)” value is “picomolar range” and the “dependence of binding affinity to ABX on pH / temperature” value is listed as “decreased with higher pH”. Also, the median survival in experiment [5] came out at 12 days.
